Counter-ions that a name gives are not always drawn. Like-named read-outs stand apart in the source and are kept apart here.
Key:
[1] = In Vitro Microsome Stability Assay (human); assay type: in vitro ADME
Procedure, shortened: (§1)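 Test article, added from a 0.25 mM DMSO stock, was incubated with liver microsomes (20 mg/mL stock) in 0.1 M potassium phosphate at 37° C, with the reaction started by NADPH. Samples were quenched with acetonitrile containing internal standard at 0 and 30 min and analysed by LC-MS/MS. Values are % remaining at 30 min versus 0 min, using IS-normalised AUC ratios.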

[2] = In Vitro Microsome Stability Assay (mouse); assay type: in vitro ADME
Procedure, shortened: as §1

[3] = In Vitro Microsome Stability Assay (monkey); assay type: in vitro ADME
Procedure, shortened: as §1

[4] = test system: full length TNFα (amino acids 1-233) fused to Gaussia Luciferase; test: Dox Induced TNFα-FL-Gluc Assay; assay type: cell-based; details: 24 hr, read-out: 24 hr Dox Inducible TNFaFLGluc 293FRT/TO: Mean IC50
Procedure, shortened: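 Compounds diluted in DMSO/medium with doxycycline were incubated at 37° C, 5% CO2 with 293 T-REx cells stably carrying a Tet-regulated TNFα(1-233)-Gaussia luciferase construct. Data for structures drawn without stereochemistry refer to stereoisomer mixtures.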

[5] = In Vitro Microsome Stability Assay (rat); assay type: in vitro ADME
Procedure, shortened: as §1

[6] = test system: PD1 signal sequence plus 10 amino acids fused to Gaussia Luciferase (PD1-ss+10aa/Gaussia Luciferase); test: Dox Induced PD1-ss-Gluc Assay; assay type: cell-based; details: 24 hr, read-out: 24 hr Dox Inducible PD1ssGluc 293FRT/TO: Mean IC50
Procedure, shortened: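 Compound dilutions in DMSO/media containing doxycycline were applied to a stable, inducible 293 T-REx line carrying the luciferase fusion, then incubated at 37 °C, 5% CO2. Where stereochemistry is not drawn, values relate to isomer mixtures.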

[7] = test system: multiple myeloma cell line U266B1; test: U266 Cell Viability Assay; assay type: cell-based, human; details: 48 hr
Procedure, shortened: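 Viability was measured by CellTiter-Glo luminescence after 48 h compound exposure at 37° C, 5% CO2. The cells were U266B1 multiple myeloma cells grown in RPMI 1640 plus 10% FBS. Where stereochemistry is not shown, values apply to the stereoisomer mixture.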

[8] = test system: multiple myeloma cell line NCl-H929; test: H929 Cell Viability Assay; assay type: cell-based, human
Procedure, shortened: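 Viability was determined by CellTiter-Glo luminescence after a 48 h, 37 °C exposure of NCI-H929 cells to serial compound dilutions in medium containing 10% FBS. Where stereochemistry is not shown, values refer to a mix of stereoisomers.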

[9] = Homo sapiens, U-266, U266, read-out: 48 hr U266 Viability Celltiter-Glo: Mean EC50
[10] = Homo sapiens, NCI-H929, 48 h, H929, read-out: 48 hr H929 Viability Celltiter-Glo: Mean EC50

SMILES: C=C1CN(S(=O)(=O)c2ccc(N(C)C)cc2)CCCN(CC2CCCCC2)CCCN(S(=O)(=O)N2CCC(C3CCCCC3)CC2)C1 [A65, 4-{[9-(cyclohexylmethyl)-5-[(4-cyclohexylpiperidin-1-yl)sulfonyl}-3-methylidene-1,5,9-triazacyclododecan-1-yl]sulfonyl}-N,N-dimethylaniline]
- Liver Microsome Stability-% Left after 30 min w/ NADPH (%) Human ([1]; human, 30 min, NADPH): 53.1%
- Liver Microsome Stability-% Left after 30 min w/ NADPH (%) Mouse ([2]; mouse, 30 min, NADPH): 73.4%
- Liver Microsome Stability-% Left after 30 min w/ NADPH (%) Monkey ([3]; monkey, 30 min, NADPH): 57.8%
- IC50 ([4]; 293FRT/TO): 8.72 µM
- Liver Microsome Stability-% Left after 30 min w/ NADPH (%) Rat ([5]; rat, 30 min, NADPH): 78%
- IC50 ([6]; 293FRT/TO): 0.154 µM
- EC50 [7, 9]: > 25 µM
- EC50 [8, 10]: > 25 µM

SMILES: C=C1CN(S(=O)(=O)c2ccc(N(C)C)cc2)CCCN(CC2CCCCC2)CCCN(S(=O)(=O)N2CCc3cc(-c4ccccc4)ccc3C2)C1 [A63, 4-((9-(cyclohexylmethyl)-3-methylene-5-((6-phenyl-3,4-dihydroisoquinolin-2(1H)-yl)sulfonyl)-1,5,9-triazacyclododecan-1-yl)sulfonyl)-N,N-dimethylaniline]
- Liver Microsome Stability-% Left after 30 min w/ NADPH (%) Human ([1]; human, 30 min, NADPH): 76.4%
- Liver Microsome Stability-% Left after 30 min w/ NADPH (%) Mouse ([2]; mouse, 30 min, NADPH): 85.2%
- Liver Microsome Stability-% Left after 30 min w/ NADPH (%) Monkey ([3]; monkey, 30 min, NADPH): 84.4%
- IC50 ([4]; 293FRT/TO): 1.87 µM
- Liver Microsome Stability-% Left after 30 min w/ NADPH (%) Rat ([5]; rat, 30 min, NADPH): 88.2%
- IC50 ([6]; 293FRT/TO): 0.0437 µM
- EC50 [7, 9]: > 25 µM
- EC50 [8, 10]: 7.43 µM

SMILES: COc1ccc(S(=O)(=O)N2CCCN(CC3CCCCC3)CCCN(S(=O)(=O)N3CCCCC3)CC3(CC3)C2)cc1 [A31, 9-(cyclohexylmethyl)-5-(4-methoxybenzenesulfonyl)-13-(piperidine-1-sulfonyl)-5,9,13-triazaspiro[2.11]tetradecane]
- Liver Microsome Stability-% Left after 30 min w/ NADPH (%) Human ([1]; human, 30 min, NADPH): 0.05%
- Liver Microsome Stability-% Left after 30 min w/ NADPH (%) Mouse ([2]; mouse, 30 min, NADPH): 0.25%
- Liver Microsome Stability-% Left after 30 min w/ NADPH (%) Monkey ([3]; monkey, 30 min, NADPH): 0.03%
- IC50 ([4]; 293FRT/TO): > 25 µM
- Liver Microsome Stability-% Left after 30 min w/ NADPH (%) Rat ([5]; rat, 30 min, NADPH): 0.09%
- IC50 ([6]; 293FRT/TO): 0.619 µM
- EC50 [7, 9]: > 25 µM
- EC50 [8, 10]: > 25 µM

SMILES: C=C1CN(S(=O)(=O)c2ccc(C)cc2)CCCN(CC2CCCCC2)CCC(C)N(S(=O)(=O)c2ccc(C)cc2)C1 (centres unmarked) [B1, 5-(cyclohexylmethyl)-2-methyl-11-methylene-1,9-ditosyl-1,5,9-triazacyclododecane hydrochloride]
- Liver Microsome Stability-% Left after 30 min w/ NADPH (%) Human ([1]; human liver microsomes, 30 min w/ NADPH): 0.04%
- Liver Microsome Stability-% Left after 30 min w/ NADPH (%) Mouse ([2]; mouse liver microsomes, 30 min w/ NADPH): 0.02%
- Liver Microsome Stability-% Left after 30 min w/ NADPH (%) Monkey ([3]; monkey liver microsomes, 30 min w/ NADPH): 0.02%
- IC50 ([4]; Dox inducible, 293FRT/TO cells): > 25 µM
- Liver Microsome Stability-% Left after 30 min w/ NADPH (%) Rat ([5]; rat liver microsomes, 30 min w/ NADPH): 0.01%
- IC50 ([6]; Dox inducible, 293FRT/TO cells): 0.424 µM
- EC50 ([7]; Homo sapiens, U-266, U266, Celltiter-Glo): > 25 µM
- EC50 ([8]; Homo sapiens, NCI-H929, 48 h, H929, Celltiter-Glo): > 25 µM

SMILES: CN(C)c1ccc(S(=O)(=O)N2CCCN(CC3CCCCC3)CCCN(S(=O)(=O)N3CCCCCC3)CC3(CC3)C2)cc1 [A25, 4-{[13-(azepane-1-sulfonyl)-9-(cyclohexylmethyl)-5,9,13-triazaspiro[2.11]tetradecan-5-yl]sulfonyl}-N,N-dimethylaniline]
- Liver Microsome Stability-% Left after 30 min w/ NADPH (%) Human ([1]; human, 30 min, NADPH): 0.12%
- Liver Microsome Stability-% Left after 30 min w/ NADPH (%) Mouse ([2]; mouse, 30 min, NADPH): 0.32%
- Liver Microsome Stability-% Left after 30 min w/ NADPH (%) Monkey ([3]; monkey, 30 min, NADPH): 0.2%
- IC50 ([4]; 293FRT/TO): > 25 µM
- Liver Microsome Stability-% Left after 30 min w/ NADPH (%) Rat ([5]; rat, 30 min, NADPH): 4.16%
- IC50 ([6]; 293FRT/TO): 0.435 µM
- EC50 [7, 9]: > 25 µM
- EC50 [8, 10]: > 25 µM

SMILES: C=C1CN(S(=O)(=O)c2ccc(N(C)C)cc2)CCCN(CC2CCCCC2)CCCN(S(=O)(=O)N2CCC(C3CCOCC3)CC2)C1 [A78, 4-{[9-(cyclohexylmethyl)-3-methylidene-5-{[4-(oxan-4-yl)piperidin-1-yl]sulfonyl}-1,5,9-triazacyclododecan-1-yl]sulfonyl}-N,N-dimethylaniline]
- Liver Microsome Stability-% Left after 30 min w/ NADPH (%) Human ([1]; human, 30 min, NADPH): 0.2%
- Liver Microsome Stability-% Left after 30 min w/ NADPH (%) Mouse ([2]; mouse, 30 min, NADPH): 0.15%
- Liver Microsome Stability-% Left after 30 min w/ NADPH (%) Monkey ([3]; monkey, 30 min, NADPH): 0.11%
- IC50 ([4]; 293FRT/TO): > 25 µM
- Liver Microsome Stability-% Left after 30 min w/ NADPH (%) Rat ([5]; rat, 30 min, NADPH): 0.25%
- IC50 ([6]; 293FRT/TO): 0.36 µM
- EC50 [7, 9]: > 25 µM
- EC50 [8, 10]: > 25 µM

SMILES: C=C1CN(S(=O)(=O)c2ccc(N(C)C)cc2F)CCCN(CC2CCCCC2)CCCN(S(=O)(=O)N2CCc3cc(Cl)ccc3C2)C1 [A56, 4-({5-[(6-chloro-1,2,3,4-tetrahydroisoquinolin-2-yl)sulfonyl]-9-(cyclohexylmethyl)-3-methylidene-1,5,9-triazacyclododecan-1-yl}sulfonyl)-3-fluoro-N,N-dimethylaniline]
- Liver Microsome Stability-% Left after 30 min w/ NADPH (%) Human ([1]; human, 30 min, NADPH): 44.5%
- Liver Microsome Stability-% Left after 30 min w/ NADPH (%) Mouse ([2]; mouse, 30 min, NADPH): 53.2%
- Liver Microsome Stability-% Left after 30 min w/ NADPH (%) Monkey ([3]; monkey, 30 min, NADPH): 42.6%
- IC50 ([4]; 293FRT/TO): 1.26 µM
- Liver Microsome Stability-% Left after 30 min w/ NADPH (%) Rat ([5]; rat, 30 min, NADPH): 57.3%
- IC50 ([6]; 293FRT/TO): 0.0328 µM
- EC50 [7, 9]: > 25 µM
- EC50 [8, 10]: 1.63 µM

SMILES: C=C1CN(S(=O)(=O)c2ccc(C)cc2)CCCN(CC2CCCCC2)CCCN(S(=O)(=O)C2CCCCC2)C1 [A8, 1-(cyclohexanesulfonyl)-9-(cyclohexylmethyl)-5-(4-methylbenzenesulfonyl)-3-methylidene-1,5,9-triazacyclododecane]
- Liver Microsome Stability-% Left after 30 min w/ NADPH (%) Human ([1]; human, 30 min, NADPH): 0.09%
- Liver Microsome Stability-% Left after 30 min w/ NADPH (%) Mouse ([2]; mouse, 30 min, NADPH): 0.17%
- Liver Microsome Stability-% Left after 30 min w/ NADPH (%) Monkey ([3]; monkey, 30 min, NADPH): 0.19%
- IC50 ([4]; 293FRT/TO): > 25 µM
- Liver Microsome Stability-% Left after 30 min w/ NADPH (%) Rat ([5]; rat, 30 min, NADPH): 0.61%
- IC50 ([6]; 293FRT/TO): 2.68 µM
- EC50 ([7]; U266, read-out: 48 hr U266 Viability Celltiter-Glo: Mean EC50): > 25 µM
- EC50 ([8]; 48 hr, H929, read-out: 48 hr H929 Viability Celltiter-Glo: Mean EC50): > 25 µM

SMILES: C=C1CN(S(=O)(=O)c2ccc(N(C)C)cc2)CCCN(CC2CCCCC2)CCCN(S(=O)(=O)N2CCN(c3ccccc3)[C@@H](C)C2)C1 [A47, 4-{[9-(cyclohexylmethyl)-5-{[(3S)-3-methyl-4-phenylpiperazin-1-yl]sulfonyl}-3-methylidene-1,5,9-triazacyclododecan-1-yl]sulfonyl}-N,N-dimethylaniline]
- Liver Microsome Stability-% Left after 30 min w/ NADPH (%) Human ([1]; human, 30 min, NADPH): 12.6%
- Liver Microsome Stability-% Left after 30 min w/ NADPH (%) Mouse ([2]; mouse, 30 min, NADPH): 5.68%
- Liver Microsome Stability-% Left after 30 min w/ NADPH (%) Monkey ([3]; monkey, 30 min, NADPH): 1.68%
- IC50 ([4]; 293FRT/TO): > 25 µM
- Liver Microsome Stability-% Left after 30 min w/ NADPH (%) Rat ([5]; rat, 30 min, NADPH): 10.7%
- IC50 ([6]; 293FRT/TO): 0.259 µM
- EC50 [7, 9]: > 25 µM
- EC50 [8, 10]: > 25 µM

SMILES: O=C(c1ccc(Cl)cc1)N1CCCN(S(=O)(=O)N2CCCCC2)CC2(CC2)CN(S(=O)(=O)N2CCCCC2)CCC1 [A24, (5,13-bis(piperidin-1-ylsulfonyl)-5,9,13-triazaspiro[2.11]tetradecan-9-yl)(4-chlorophenyl)methanone]
- Liver Microsome Stability-% Left after 30 min w/ NADPH (%) Human ([1]; human, 30 min, NADPH): 0.03%
- Liver Microsome Stability-% Left after 30 min w/ NADPH (%) Mouse ([2]; mouse, 30 min, NADPH): 0.13%
- Liver Microsome Stability-% Left after 30 min w/ NADPH (%) Monkey ([3]; monkey, 30 min, NADPH): 0.03%
- IC50 ([4]; 293FRT/TO): > 25 µM
- Liver Microsome Stability-% Left after 30 min w/ NADPH (%) Rat ([5]; rat, 30 min, NADPH): 0.04%
- IC50 ([6]; 293FRT/TO): > 25 µM
- EC50 [7, 9]: > 25 µM
- EC50 [8, 10]: > 25 µM

Reference: patent publication US11578055B2, “Triazacyclododecansulfonamide (“TCD”)-based protein secretion inhibitors” (KEZAR LIFE SCIENCES, priority 2018, dated 2023)
